± gives the standard deviation of the averaged measurements.
How the values were obtained:
[1] = compound: CC(=O)NCC(=O)N1[C@@H]2CC[C@H]1c1ccc(Nc3ncc(C(F)(F)F)c(NC4CCC4)n3)cc12; experiment: surviving fraction relative to DMSO-only wells; higher = less growth inhibition; details: exposure time: 5 days
In short: (§1)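 Continuous five-day exposure to inhibitors at 0.5, 1, 5, 10, 50, 100, 500 and 1000 nM started 24 hours after log-phase tumour cell lines were seeded at 250–500 cells per well in 384-well plates. Luminescence was read after 10 minutes at room temperature. Viability is given as surviving fraction, meaning CellTiter-Glo luminescence normalised to the median of DMSO-only wells.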

PACLITAXEL [2] = compound: T1, CC(=O)O[C@H]1C(=O)[C@@]2(C)[C@H]([C@H](OC(=O)c3ccccc3)[C@]3(O)C[C@H](OC(=O)[C@H](O)[C@@H](NC(=O)c4ccccc4)c4ccccc4)C(C)=C1C3(C)C)[C@]1(OC(C)=O)CO[C@@H]1C[C@@H]2O [PACLITAXEL]; experiment: as above; details: exposure time: 5 days
In short: as §1

[3] = compound: CC(=O)c1c(C)c2cnc(Nc3ccc(N4CCNCC4)cn3)nc2n(C2CCCC2)c1=O; experiment: as above; details: exposure time: 5 days
In short: as §1

CAMPTOTHECIN [4] = compound: T2, CC[C@@]1(O)C(=O)OCc2c1cc1n(c2=O)Cc2cc3ccccc3nc2-1 [CAMPTOTHECIN]; experiment: as above; details: exposure time: 5 days
In short: as §1

YM155 [5] = compound: T3, COCC[n+]1c2c(n(Cc3cnccn3)c1C)C(=O)c1ccccc1C2=O [YM155]; experiment: as above; details: exposure time: 5 days
In short: as §1

GEFITINIB [6] = compound: T4, COc1cc2ncnc(Nc3ccc(F)c(Cl)c3)c2cc1OCCCN1CCOCC1 [GEFITINIB]; experiment: as above; details: exposure time: 5 days
In short: as §1

OSI-906 [7] = compound: T5, C[C@]1(O)C[C@@H](c2nc(-c3ccc4ccc(-c5ccccc5)nc4c3)c3c(N)nccn32)C1 [OSI-906]; experiment: as above; details: exposure time: 5 days
In short: as §1

CELECOXIB = compound: Cc1ccc(-c2cc(C(F)(F)F)nn2-c2ccc(S(N)(=O)=O)cc2)cc1 [CELECOXIB]; experiment: as above; details: exposure time: 5 days
In short: as §1

CARBOPLATIN = compound: O=C(O)C1(C(=O)O)CCC1.[NH2-].[NH2-].[Pt+2] [CARBOPLATIN]; experiment: as above; details: exposure time: 5 days
In short: as §1

[8] = compound: CC(=O)NCC(=O)N1[C@@H]2CC[C@H]1c1ccc(Nc3ncc(C(F)(F)F)c(NC4CCC4)n3)cc12; experiment: area under dose-response curve of surviving fraction (unscaled, Aref=0) (surviving fraction x log10(nM)); higher = more resistant; details: exposure time: 5 days; dose range 0.5-1000 nM
In short: (§2)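 Tumour cell lines in 384-well plates were exposed for five days to eight inhibitor concentrations from 0.5 to 1000 nM. Viability was read by CellTiter-Glo luminescence, normalised to DMSO-only wells, in three screens per line. Dose-response survival curves were fitted to surviving fractions by 3-parameter logistic regression in the drc R package. Area under the curve is the unscaled activity area (Aref = 0) over log10 dose.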

PACLITAXEL [9] = compound: T1, PACLITAXEL; experiment: as above; details: exposure time: 5 days; dose range 0.5-1000 nM
In short: as §2

[10] = compound: CC(=O)c1c(C)c2cnc(Nc3ccc(N4CCNCC4)cn3)nc2n(C2CCCC2)c1=O; experiment: as above; details: exposure time: 5 days; dose range 0.5-1000 nM
In short: as §2

CAMPTOTHECIN [11] = compound: T2, CAMPTOTHECIN; experiment: as above; details: exposure time: 5 days; dose range 0.5-1000 nM
In short: as §2

YM155 [12] = compound: T3, YM155; experiment: as above; details: exposure time: 5 days; dose range 0.5-1000 nM
In short: as §2

GEFITINIB [13] = compound: T4, GEFITINIB; experiment: as above; details: exposure time: 5 days; dose range 0.5-1000 nM
In short: as §2

OSI-906 [14] = compound: T5, OSI-906; experiment: as above; details: exposure time: 5 days; dose range 0.5-1000 nM
In short: as §2

In the case of MDAMB157 BREAST, the surviving fraction ([1]; 0.5 nM) is reported as 0.954 ± 0.082, the surviving fraction ([1]; 1 nM) is reported as 0.854 ± 0.042 and the surviving fraction ([1]; 5 nM) is reported as 0.858 ± 0.081. For the same test system, the surviving fraction ([1]; 10 nM) was 0.895 ± 0.064, the surviving fraction ([1]; 50 nM) was 0.79 ± 0.11 and the surviving fraction ([1]; 100 nM) was 0.498 ± 0.068. The surviving fraction ([1]; 500 nM) was 0.431 ± 0.077, the surviving fraction ([1]; 1000 nM) was 0.216 ± 0.041 and the surviving fraction (PACLITAXEL [2]; 0.5 nM) was 0.867 ± 0.075. For the same test system, the surviving fraction (PACLITAXEL [2]; 1 nM) was 0.674 ± 0.019, the surviving fraction (PACLITAXEL [2]; 5 nM) was 0.144 ± 0.022 and the surviving fraction (PACLITAXEL [2]; 10 nM) was 0.105 ± 0.019. The surviving fraction (PACLITAXEL [2]; 50 nM) was 0.0473 ± 0.016, the surviving fraction (PACLITAXEL [2]; 100 nM) was 0.0687 ± 0.028 and the surviving fraction (PACLITAXEL [2]; 500 nM) was 0.0473 ± 0.0098. For the same test system, the surviving fraction (PACLITAXEL [2]; 1000 nM) was 0.069 ± 0.011, the surviving fraction ([3]; 0.5 nM) was 0.929 ± 0.05 and the surviving fraction ([3]; 1 nM) was 0.884 ± 0.027. It also gave a surviving fraction ([3]; 5 nM) of 0.974 ± 0.042, a surviving fraction ([3]; 10 nM) of 0.973 ± 0.053 and a surviving fraction ([3]; 50 nM) of 1.03 ± 0.12. The surviving fraction ([3]; 100 nM) was 1.01 ± 0.13, the surviving fraction ([3]; 500 nM) was 1 ± 0.12 and the surviving fraction ([3]; 1000 nM) was 0.902 ± 0.061. The surviving fraction (CAMPTOTHECIN [4]; 0.5 nM) was 0.857 ± 0.063, the surviving fraction (CAMPTOTHECIN [4]; 1 nM) was 0.911 ± 0.034 and the surviving fraction (CAMPTOTHECIN [4]; 5 nM) was 0.674 ± 0.061. The surviving fraction (CAMPTOTHECIN [4]; 10 nM) was 0.319 ± 0.058, the surviving fraction (CAMPTOTHECIN [4]; 50 nM) was 0.26 ± 0.0076 and the surviving fraction (CAMPTOTHECIN [4]; 100 nM) was 0.247 ± 0.019. It also gave a surviving fraction (CAMPTOTHECIN [4]; 500 nM) of 0.135 ± 0.0051, a surviving fraction (CAMPTOTHECIN [4]; 1000 nM) of 0.118 ± 0.014 and a surviving fraction (YM155 [5]; 0.5 nM) of 0.958 ± 0.024. For the same test system, the surviving fraction (YM155 [5]; 1 nM) was 1.02 ± 0.092, the surviving fraction (YM155 [5]; 5 nM) was 0.77 ± 0.037 and the surviving fraction (YM155 [5]; 10 nM) was 0.799 ± 0.039. It also gave a surviving fraction (YM155 [5]; 50 nM) of 0.0573 ± 0.024, a surviving fraction (YM155 [5]; 100 nM) of 0.031 ± 0.003 and a surviving fraction (YM155 [5]; 500 nM) of 0.0297 ± 0.0047. For the same test system, the surviving fraction (YM155 [5]; 1000 nM) was 0.039 ± 0.0046, the surviving fraction (GEFITINIB [6]; 0.5 nM) was 1.04 ± 0.033 and the surviving fraction (GEFITINIB [6]; 1 nM) was 0.968 ± 0.067. For the same test system, the surviving fraction (GEFITINIB [6]; 5 nM) was 0.92 ± 0.057, the surviving fraction (GEFITINIB [6]; 10 nM) was 1.01 ± 0.059 and the surviving fraction (GEFITINIB [6]; 50 nM) was 0.911 ± 0.1. For the same test system, the surviving fraction (GEFITINIB [6]; 100 nM) was 1.02 ± 0.053, the surviving fraction (GEFITINIB [6]; 500 nM) was 0.991 ± 0.026 and the surviving fraction (GEFITINIB [6]; 1000 nM) was 0.864 ± 0.066. The surviving fraction (OSI-906 [7]; 0.5 nM) was 0.892 ± 0.048, the surviving fraction (OSI-906 [7]; 1 nM) was 0.875 ± 0.11 and the surviving fraction (OSI-906 [7]; 5 nM) was 0.949 ± 0.058. For the same test system, the surviving fraction (OSI-906 [7]; 10 nM) was 0.946 ± 0.079, the surviving fraction (OSI-906 [7]; 50 nM) was 0.957 ± 0.11 and the surviving fraction (OSI-906 [7]; 100 nM) was 0.855 ± 0.056. It also gave a surviving fraction (OSI-906 [7]; 500 nM) of 0.872 ± 0.037, a surviving fraction (OSI-906 [7]; 1000 nM) of 0.884 ± 0.086 and a surviving fraction (CELECOXIB; 0.5 nM) of 0.92 ± 0.089. It also gave a surviving fraction (CELECOXIB; 1 nM) of 0.989 ± 0.093, a surviving fraction (CELECOXIB; 5 nM) of 0.993 ± 0.048 and a surviving fraction (CELECOXIB; 10 nM) of 0.967 ± 0.045. It also gave a surviving fraction (CELECOXIB; 50 nM) of 1 ± 0.16, a surviving fraction (CELECOXIB; 100 nM) of 0.991 ± 0.04 and a surviving fraction (CELECOXIB; 500 nM) of 0.984 ± 0.025. For the same test system, the surviving fraction (CELECOXIB; 1000 nM) was 0.945 ± 0.07, the surviving fraction (CARBOPLATIN; 0.5 nM) was 1.04 ± 0.1 and the surviving fraction (CARBOPLATIN; 1 nM) was 0.881 ± 0.024. The surviving fraction (CARBOPLATIN; 5 nM) was 1.02 ± 0.11, the surviving fraction (CARBOPLATIN; 10 nM) was 1.04 ± 0.066 and the surviving fraction (CARBOPLATIN; 50 nM) was 1.06 ± 0.12. For the same test system, the surviving fraction (CARBOPLATIN; 100 nM) was 0.957 ± 0.056, the surviving fraction (CARBOPLATIN; 500 nM) was 0.949 ± 0.084 and the surviving fraction (CARBOPLATIN; 1000 nM) was 0.943 ± 0.13. The “area under dose-response curve” value [8] was 2.36, the “area under dose-response curve” value (PACLITAXEL [9]) was 0.654 and the “area under dose-response curve” value [10] was 3.21. For the same test system, the “area under dose-response curve” value (CAMPTOTHECIN [11]) was 1.4, the “area under dose-response curve” value (YM155 [12]) was 1.53 and the “area under dose-response curve” value (GEFITINIB [13]) was 3.2. The “area under dose-response curve” value (OSI-906 [14]) was 2.98.

From the supplement of paper PMC6045584
